# Test results as given in PMC11530130, “Peripherally restricted PICK1 inhibitor mPD5 ameliorates pain behaviors in murine inflammatory and neuropathic pain models” (JCI Insight, 2024).
# “And” between values parts separate entries of the source, which are not always exact repeats. Identical values can stand only once.
# How the values were obtained:
# [1] = test system: mice, spared nerve injury (SNI) model; assay: Ultrasonic vocalisation (USV) recordings at 37 kHz, SNI mice; type: in vivo, mouse; details: for Ultrasonic vocalisations, individual animals (Fig 5E): SNI mice
# Method: Time spent in each compartment was […]
# compartment was used to define three even groups.
# Conditioning (DAY 2-9): Mice were injected s.c. with PBS, morphine (10 mg/kg) (RH Pharmacy, Denmark, Vnr. 475249), or 10 μmol/kg mPD5 immediately before being placed in and confined to the appropriate compartment for 40 min. Drug was paired to the least-preferred compartment, conditioning was alternated so that mice were never placed in the same compartment two days in a row, and the day on which they were exposed to drug was […]
# Preference test (DAY 10): Mice were allowed to freely move between the two compartments […]
# Ultrasonic vocalisation (USV) recordings.
# Mice were left in Med-Associates square behavioral chambers (27 cm x 27 cm) to freely roam around for 60 min, four days in a row. […] On day three, both control and SNI mice were placed directly in the chambers and recorded for 60 min. On day four, control mice were injected s.c. with PBS, and SNI mice were injected with either 10 μmol/kg mPD5 or PBS immediately before being placed in the chambers and recorded for 60 min. The recordings were analyzed using the Avisoft SASLab Pro software (Version 5.02.07, Avisoft Bioacoustics) as described in (12), applying a fast fourier transformation (FFT) (1024 FTT length, 100% frame size, Blackman window, and 87.5% time window overlap). […]
# To compare pain-relevant vocalizations, only short and constant USVs of 37 kHz were counted […]
# Mice were pretreated with 10 μmol/kg mPD5, 10 mg/kg morphine (RH Pharmacy, Denmark, Vnr. 475249), or PBS 45 min before habituation to observation container (glass cylinder surrounded by mirrors on 2 sides) for 15 min. […] Mice were recorded for three min after i.pl. injection with capsaicin and euthanized the same day. Mice were scored manually for the amount of time spent paw licking within three min after capsaicin administration. […]
# [2] = test system: mice, spared nerve injury (SNI) model; assay: SNI model 18 weeks after surgery, von Frey, sustained s.c. administration; type: in vivo, mouse; design: von Frey threshold, Fig 7C, individual mice: unit not given here; details: for duration of effect on mechanical hypersensitivity: SNI 18 weeks after surgery
# Method: Repeated and sustained administration of mPD5 in the SNI model. […]
# For the first experiment with sustained administration of mPD5 (Figure 7C), the mice underwent a baseline von Frey reading as described in the “Mechanically-evoked pain (von Frey).”-section and SNI surgery as described in “Induction of neuropathic pain (SNI model).”-section. Approximately 18 weeks (125 days) after SNI surgery, hyperalgesia was confirmed with von Frey. On the same day, mice were injected s.c. with 10 μmol/kg mPD5 and evoked pain was tested again at 1 hour after injection. Then, mice were injected s.c. with either 2+2+2 μmol/kg mPD5 (group A) or PBS (group B) once an hour for 3 hours. At 4,5 hours after the 10 μmol/kg mPD5 injection paw withdrawal threshold was measured again followed by a s.c. injection of 2 μmol/kg mPD5 in all animals. The PWT was measured again at 6 hours +7 hours + 8 hours + 9 hours + 10 hours + 11 hours + 22 hours + 23 hours + 25 hours + 27 hours + 49 hours + 121 hours after the initial 10 μmol/kg mPD5 injection performed on day 125. […]
smiles,measurement,setting,value
"CCCCCCCCCCCCCC(=O)N(CCOCCOCCC(=O)N[C@@H](Cc1c[nH]cn1)C(=O)N[C@@H](Cc1c[nH]c2ccccc12)C(=O)N[C@@H](CC(C)C)C(=O)N[C@@H](CCCCN)C(=O)N[C@H](C(=O)O)C(C)C)CCOCCOCCC(=O)N[C@@H](Cc1c[nH]cn1)C(=O)N[C@@H](Cc1c[nH]c2ccccc12)C(=O)N[C@@H](CC(C)C)C(=O)N[C@@H](CCCCN)C(=O)N[C@H](C(=O)O)C(C)C [mPD5, myristoyl-NPEG4-(HWLKV)2]","Ultrasonic vocalisations, individual animals (Fig 5E)",[1]; Baseline,4 and 10 and 8 and 9 and 7 and 5
same,"Ultrasonic vocalisations, individual animals (Fig 5E)",[1]; min 60-120 post injection,3 and 8 and 1 and 7
same,effect on SNI-induced increase of vocalizations at 37 kHz,"[1]; SNI, female mice, s.c. 10 μmol/kg, to the level of the naive mice",fully reversed
same,"von Frey threshold, contralateral paw, Fig 7C, individual mice","[2]; A-contra, time 9 post første inj og time 4 post sidste inj",1.4 (3×) and 1 (5×)
same,"von Frey threshold, contralateral paw, Fig 7C, individual mice","[2]; A-contra, time 10 post første inj og time 5 post sidste inj",1 (4×) and 1.4 (3×) and 0.6
same,"von Frey threshold, contralateral paw, Fig 7C, individual mice","[2]; A-contra, time 11 post første inj og time 6 post sidste inj",1.4 (2×) and 2 (2×) and 1 (4×)
same,"von Frey threshold, contralateral paw, Fig 7C, individual mice","[2]; A-contra, time 22 post første inj og time 17 post sidste inj",1.4 (4×) and 0.6 and 1 (3×)
same,"von Frey threshold, contralateral paw, Fig 7C, individual mice","[2]; A-contra, time 23 post første inj og time 18 post sidste inj",1.4 (6×) and 0.6 and 1
same,"von Frey threshold, contralateral paw, Fig 7C, individual mice","[2]; A-contra, time 25 post første inj og time 20 post sidste inj",1 (7×) and 1.4
same,"von Frey threshold, contralateral paw, Fig 7C, individual mice","[2]; A-contra, time 27 post første inj og time 22 post sidste inj",1.4 (3×) and 1
same,"von Frey threshold, contralateral paw, Fig 7C, individual mice","[2]; B-contra, time 9 post første inj og time 4 post sidste inj",1 (4×) and 1.4 (3×) and 2
same,"von Frey threshold, contralateral paw, Fig 7C, individual mice","[2]; B-contra, time 10 post første inj og time 5 post sidste inj",1.4 (4×) and 2 (2×) and 1 (2×)
same,"von Frey threshold, contralateral paw, Fig 7C, individual mice","[2]; B-contra, time 11 post første inj og time 6 post sidste inj",1 (2×) and 2 (2×) and 1.4 (4×)
same,"von Frey threshold, contralateral paw, Fig 7C, individual mice","[2]; B-contra, time 22 post første inj og time 17 post sidste inj",1.4 (3×) and 1 (2×) and 2 (3×)
same,"von Frey threshold, contralateral paw, Fig 7C, individual mice","[2]; B-contra, time 23 post første inj og time 18 post sidste inj",1 (2×) and 2 (3×) and 1.4 (2×) and 0.6
same,"von Frey threshold, contralateral paw, Fig 7C, individual mice","[2]; B-contra, time 25 post første inj og time 20 post sidste inj",1.4 (5×) and 1 and 2 and 0.6
same,duration of effect on mechanical hypersensitivity,"[2]; 10 + 2 + 2 + 2 + 2 μmol/kg s.c., 1 hour between injections (Group A), from first injection",25 h
same,duration of effect on mechanical hypersensitivity,"[2]; without consecutive administration (reference, 10 + 0 + 0 + 0 + 2 μmol/kg)",1 h
same,"von Frey threshold, Fig 7C, individual mice","[2]; group A, time 9 post første inj og time 4 post sidste inj",2 and 1.4 and 0.6 and 0.4 (2×) and 1 (3×)
same,"von Frey threshold, Fig 7C, individual mice","[2]; group A, time 10 post første inj og time 5 post sidste inj",1.4 (2×) and 2 and 0.4 (3×) and 0.6 and 1
same,"von Frey threshold, Fig 7C, individual mice","[2]; group A, time 11 post første inj og time 6 post sidste inj",1.4 and 1 (3×) and 0.16 and 0.4 and 0.6 (2×)
same,"von Frey threshold, Fig 7C, individual mice","[2]; group A, time 22 post første inj og time 17 post sidste inj",0.6 (2×) and 1 (2×) and 0.16 (2×) and 0.4 and 1.4
same,"von Frey threshold, Fig 7C, individual mice","[2]; group A, time 23 post første inj og time 18 post sidste inj",1.4 and 0.6 (2×) and 0.16 and 0.07 (2×) and 1 and 0.4
same,"von Frey threshold, Fig 7C, individual mice","[2]; group A, time 25 post første inj og time 20 post sidste inj",0.16 (2×) and 2 and 0.6 (3×) and 0.4 and 1.4
same,"von Frey threshold, Fig 7C, individual mice","[2]; group A, time 27 post første inj og time 22 post sidste inj",0.4
same,"von Frey threshold, Fig 7C, individual mice","[2]; group B, time 9 post første inj og time 4 post sidste inj",1 and 0.4 (3×) and 0.07 (2×) and 0.6 and 0.16
same,"von Frey threshold, Fig 7C, individual mice","[2]; group B, time 10 post første inj og time 5 post sidste inj",0.4 (3×) and 0.16 (2×) and 0.07 (3×)
same,"von Frey threshold, Fig 7C, individual mice","[2]; group B, time 11 post første inj og time 6 post sidste inj",0.4 (2×) and 0.16 (3×) and 0.07 (3×)
same,"von Frey threshold, Fig 7C, individual mice","[2]; group B, time 22 post første inj og time 17 post sidste inj",0.16 (5×) and 0.07 (3×)
same,"von Frey threshold, Fig 7C, individual mice","[2]; group B, time 23 post første inj og time 18 post sidste inj",0.16 (3×) and 0.4 (2×) and 0.07 (3×)
same,"von Frey threshold, Fig 7C, individual mice","[2]; group B, time 25 post første inj og time 20 post sidste inj",0.6 and 0.16 (4×) and 0.4 and 0.07 (2×)
same,"von Frey threshold, Fig 7C, individual mice","[2]; group B, time 27 post første inj og time 22 post sidste inj",0.6 and 0.07 and 0.16
